# Marks after values point to notes of the source that are not given here.
# What was measured:
# Type in all cases: in vivo
# Conditions in all cases: 100 = 100% disease control
# [1] = tested on: Botrytis cinerea; assay: Test C: tomato Botrytis on tomato seedlings, sprayed the day before inoculation, visual disease rating
# How it was run: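 Spray to run-off on tomato seedlings; test conc. 200 ppm (≈500 g/ha), some entries 40 ppm. Formulation: acetone 3% of final vol., then acetone/water 50:50 + 250 ppm polyhydric alcohol ester surfactant.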
# [2] = tested on: Alternaria solani; assay: Test D: tomato early blight, sprayed the day before inoculation, visual disease rating
# How it was run: (§1)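 Spray suspension: acetone 3% of final volume, then 50/50 acetone/water plus 250 ppm Trem® 014. Applied to run-off on seedlings at 200 ppm (≈500 g/ha); starred entries tested at 40 ppm.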
# [3] = tested on: Septoria nodorum; assay: Test F: wheat glume blotch on wheat seedlings, sprayed the day before inoculation, visual disease rating
# How it was run: as §1
# [4] = tested on: Septoria tritici; assay: Test G: wheat leaf blotch on wheat seedlings, sprayed the day before inoculation, visual disease rating
# How it was run: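 Wheat seedlings were sprayed to run-off with test suspension (acetone/water plus surfactant), generally 200 ppm (≈500 g/ha), or 40 ppm where marked. Septoria tritici spores were inoculated the next day; plants were held 48 h at 24°C in saturated atmosphere, then 19 days at 20°C before visual disease rating.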
# [5] = tested on: Puccinia recondita f. sp. tritici; assay: Test H: wheat leaf rust, test suspension sprayed after inoculation of wheat seedlings, visual disease rating
# How it was run: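 Wheat seedlings inoculated with P. recondita spores, held 24 h saturated at 20 °C, then 2 days in growth chamber at 20 °C; compound suspension (acetone/water with Trem 014) sprayed to run-off afterwards. Rated visually; 200 ppm (≈500 g/ha) unless marked *, which denotes 40 ppm.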
# [6] = tested on: Puccinia recondita f. sp. tritici; assay: Test I: wheat leaf rust on wheat seedlings, sprayed the day before inoculation, visual disease rating
# How it was run: as §1
# [7] = tested on: Erysiphe graminis f. sp. tritici; assay: Test J: wheat powdery mildew on wheat seedlings, sprayed the day before inoculation, visual disease rating
# How it was run: as §1
# [8] = 200 ppm, 0 = no control relative to controls
SMILES,"Test C disease control rating [1, 8]","Test D disease control rating [2, 8]","Test F disease control rating [3, 8]","Test G disease control rating [4, 8]","Test H disease control rating [5, 8]","Test I disease control rating [6, 8]","Test J disease control rating [7, 8]",other results
COc1ccc(F)c(-c2c(Cl)nc(Cl)n2-c2cccc(C)c2)c1F [compound 391],100%,99%,0%,94%,0%,99%,100%,
COc1cc(F)c(-c2c(Cl)nc(Br)n2-c2ccc(OC(F)(F)F)cc2)c(F)c1 [compound 548],98%,100%,94%,96%,0%,99%,100%,
Cc1nc(Cl)c(-c2ccc(Cl)cc2)n1Cc1cccc(Cl)c1 [compound 295],,,,,,,,"Test C disease control rating ([1]; 200 ppm, 0 = no control): 99%; Test D disease control rating ([2]; 200 ppm, 0 = no control): 0%; Test F disease control rating ([3]; 200 ppm, 0 = no control): 0%; Test G disease control rating ([4]; 200 ppm, 0 = no control): 94%; Test H disease control rating ([5]; 200 ppm, 0 = no control): 0%; Test I disease control rating ([6]; 200 ppm, 0 = no control): 80%; Test J disease control rating ([7]; 200 ppm, 0 = no control): 0%"
COc1cc(F)c(-c2c(Cl)nc(C)n2-c2cccc(OC(F)(F)F)c2)c(F)c1 [compound 589],100%,99%,98%,98%,97%,100%,100%,
COc1cc(F)c(-c2c(Cl)ncn2Cc2ccc(Cl)nc2)c(F)c1 [compound 669],100%,100%,99%,99%,73%,98%,0%,
Fc1cc(F)c(-c2c(Cl)nc(Cl)n2-c2ccc(OC(F)F)cc2)c(F)c1 [compound 598],100%,100%,100%,99%,99%,100%,100%,
COc1cc(OC)cc(-c2c(Br)nc(C)n2-c2c(F)cc([N+](=O)[O-])cc2F)c1 [compound 651],97%,0%,60%,97%,0%,95%,79%,
Cc1nc(Br)n(-c2ccc(Cl)nc2)c1-c1c(F)cccc1F [compound 682],100%,100%,99%,100%,97%,100%,100%,
Fc1cc(F)c(-c2c(Cl)nc(Cl)n2-c2cccc(OC(F)(F)F)c2)c(F)c1 [compound 599],26%,0%,0%,9%,0%,0%,0%,
COc1ccc(F)c(-c2c(Cl)nc(C)n2-c2cccc(F)c2)c1F [compound 315],99%,100%,100%,95%,86%,100%,100%,
"COc1cc(F)c(-n2cnc(C)c2-c2ccc(Cl)nc2)c(F)c1 [Compound 685, 2-chloro-5-[1-(2,6-difluoro-4-methoxyphenyl)-4-methyl-1H-imidazol-5-yl]pyridine]",,,,,,,,"pest or weed control at 40 ppm ([1]; Botrytis cinerea, 120 h, 40 ppm (marked *)): 100%; pest or weed control at 40 ppm ([2]; Alternaria solani, 168 h, 40 ppm (marked *)): 99%; pest or weed control at 40 ppm ([3]; Parastagonospora nodorum, 264 h, 40 ppm (marked *)): 0%; pest or weed control at 40 ppm ([4]; Zymoseptoria tritici, 504 h, 40 ppm (marked *)): 87%; pest or weed control at 40 ppm ([5]; Puccinia recondita, 96 h, 40 ppm (marked *)): 0%; pest or weed control at 40 ppm ([6]; Puccinia recondita, 168 h, 40 ppm (marked *)): 68%; pest or weed control at 40 ppm ([7]; Blumeria graminis, 168 h, 40 ppm (marked *)): 64%"
Cc1nc(C)n(-c2ccc(Cl)c(F)c2)c1-c1c(F)ccc(F)c1Cl [compound 489],,,,,,,,Test C disease control rating ([1]; 40 ppm (marked *)): 96* %; Test D disease control rating ([2]; 40 ppm (marked *)): 98* %; Test F disease control rating ([3]; 40 ppm (marked *)): 0* %; Test G disease control rating ([4]; 40 ppm (marked *)): 93* %; Test H disease control rating ([5]; 40 ppm (marked *)): 0* %; Test I disease control rating ([6]; 40 ppm (marked *)): 100* %; Test J disease control rating ([7]; 40 ppm (marked *)): 100* %
Fc1ccc(-n2c(Br)nc(Cl)c2-c2ccc(Cl)c(F)c2)c(Cl)c1 [compound 328],100%,98%,0%,95%,9%,94%,98%,
COc1ccc(-n2c(Cl)nc(Cl)c2-c2c(F)cccc2F)cn1 [compound 621],100%,100%,99%,98%,100%,100%,100%,
Fc1cc(-n2c(Cl)nc(Br)c2-c2c(F)ccc(F)c2F)ccc1Cl [compound 350],99%,100%,82%,91%,0%,99%,100%,
COc1cc(F)c(-c2c(Cl)ncn2-c2ccc(OC(F)F)cc2)c(F)c1 [compound 557],100%,99%,78%,96%,43%,99%,87%,
"COc1cc(OC)cc(-n2cnc(C)c2-c2c(F)cc(OC)cc2F)c1 [Compound 632, 5-(2,6-difluoro-4-methoxyphenyl)-1-(3,5-dimethoxyphenyl)-4-methyl-1H-imidazole]",,,,,,,,"pest or weed control at 200 ppm ([1]; Botrytis cinerea, 120 h, 200 ppm, 0 = no control relative to controls): 99%; pest or weed control at 200 ppm ([2]; Alternaria solani, 168 h, 200 ppm, 0 = no control relative to controls): 100%; pest or weed control at 200 ppm ([3]; Parastagonospora nodorum, 264 h, 200 ppm, 0 = no control relative to controls): 0%; pest or weed control at 200 ppm ([4]; Zymoseptoria tritici, 504 h, 200 ppm, 0 = no control relative to controls): 98%; pest or weed control at 200 ppm ([5]; Puccinia recondita, 96 h, 200 ppm, 0 = no control relative to controls): 99%; pest or weed control at 200 ppm ([6]; Puccinia recondita, 168 h, 200 ppm, 0 = no control relative to controls): 100%; pest or weed control at 200 ppm ([7]; Blumeria graminis, 168 h, 200 ppm, 0 = no control relative to controls): 97%"
